Measured values as given in PubChem BioAssay (NCI).
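The compound was tested at five concentrations on cells cultured in 96-well plates, with a 48-hour exposure period. GI50: concentration for 50% inhibition of growth. At the TGI there is no net growth.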 Where a SMILES comes first, the peptide text is derived from it. [ ]: non-standard residue; d: D form. The star is where a group is joined. ξ: configuration not given here. dIva = CC[C@@](C)(N)C(=O)O; Aib = CC(C)(N)C(=O)O; ξP = O=C(O)C1CCCN1; βAla = NCCC(=O)O; X5 = OCN*

Assays:
Test in all cases: growth of human tumour cells (NCI), 48 h
SK-OV-3 ovarian = system: SK-OV-3 ovarian
UO-31 renal = system: UO-31 renal
KM12 colon = system: KM12 colon
NCI-H522 lung = system: NCI-H522 lung
UACC-62 melanoma = system: UACC-62 melanoma
RPMI-8226 leukemia = system: RPMI-8226 leukemia
TK-10 renal = system: TK-10 renal
K-562 leukemia = system: K-562 leukemia
COLO 205 colon = system: COLO 205 colon
CCRF-CEM leukemia = system: CCRF-CEM leukemia

| SMILES | TGI (SK-OV-3 ovarian) | TGI (UO-31 renal) | TGI (KM12 colon) | TGI (NCI-H522 lung) | TGI (UACC-62 melanoma) | TGI (RPMI-8226 leukemia) | TGI (TK-10 renal) | TGI (K-562 leukemia) | TGI (COLO 205 colon) | GI50 (SK-OV-3 ovarian) | GI50 (UO-31 renal) | GI50 (KM12 colon) | GI50 (NCI-H522 lung) | GI50 (UACC-62 melanoma) | GI50 (CCRF-CEM leukemia) | TGI (CCRF-CEM leukemia) | GI50 (TK-10 renal) | GI50 (K-562 leukemia) | GI50 (COLO 205 colon) | GI50 (RPMI-8226 leukemia) |
| --- | --- | --- | --- | --- | --- | --- | --- | --- | --- | --- | --- | --- | --- | --- | --- | --- | --- | --- | --- | --- |
| C(=NCCN=Cc1cccc2ccccc12)c1cccc2ccccc12 | > 100 µM | > 100 µM | > 100 µM | > 100 µM | > 100 µM | > 100 µM | > 100 µM | > 100 µM | > 100 µM |  |  |  |  |  |  |  |  |  |  |  |
| O=C(O)CSc1nnc2c3ccccc3c3ccccc3c2n1 | > 100 µM | > 100 µM | > 100 µM | > 100 µM | > 100 µM | 99.4 µM | > 100 µM | > 100 µM | > 100 µM |  |  |  |  |  |  |  |  |  |  |  |
| O=S1Cc2ccccc2CSS1 (stereo unspecified) | > 100 µM | 32.6 µM | 31.6 µM | 19.4 µM | 26.5 µM | 39.8 µM | 33.2 µM | 38.1 µM | 27.3 µM |  |  |  |  |  |  |  |  |  |  |  |
| CC1CC2(C)CC(=O)C1C1C(=O)N(CCN3CCOCC3)C(=O)C12 (stereo unspecified) | > 100 µM | > 100 µM | > 100 µM | > 100 µM | > 100 µM |  | > 100 µM | > 100 µM | > 100 µM | > 100 µM | > 100000 nM | > 100000 nM | > 100000 nM | > 100000 nM | > 100000 nM | > 100 µM | > 100000 nM | > 100000 nM | > 100000 nM |  |
| CC[C@@](C)(NC(=O)[C@H](C)NC(=O)CCNC(=O)C(C)(C)NC(=O)[C@H](C)NC(=O)[C@@H]1CCCN1C(=O)[C@@](C)(CC)NC(=O)[C@H](Cc1ccccc1)NC(=O)C1CCCN1C(=O)C(C)(C)NC(=O)C1CCCN1C(=O)C(C)(C)NC(C)=O)C(=O)NCCC(=O)N[C@@H](CC(C)C)C(=O)NC(C)(C)C(=O)NCCC(=O)N[C@@H](CC(C)C)C(=O)NC(C)(C)C(=O)NC(C)(C)C(=O)N[C@@H](CC(C)C)C(=O)NCCC(=O)NCO (stereo partly specified) (Ac-[Aib][ξP][Aib][ξP]F[dIva]PA[Aib][βAla]A[dIva][βAla]L[Aib][βAla]L[Aib][Aib]L[βAla]-X5) | 0.266 µM | 0.391 µM | 0.368 µM | 0.304 µM | 0.503 µM |  | 0.353 µM | 0.332 µM | 0.248 µM | 0.0725 µM | 179 nM | 168 nM | 86.8 nM | 258 nM | 224 nM | 0.577 µM | 153 nM | 79.1 nM | 68.1 nM |  |
| O=C(Nc1ccc(N2CCNCC2)cn1)c1[nH]ncc1Nc1ncnc2sc3c(c12)CCC3 | 34.8 µM | 3.71 µM | 6.12 µM | 4.82 µM | 4.2 µM | 5.82 µM | 3.36 µM | 0.498 µM | 6.97 µM | 16.3 µM | 1580 nM | 2380 nM | 1920 nM | 1980 nM |  |  | 1770 nM | 207 nM | 2110 nM | 1940 nM |
| C=C1CC(CC(=O)C(C)CC2CC(=C)C(=O)O2)OC1=O (stereo unspecified) | > 100 µM | > 100 µM | 22.6 µM |  | 30.1 µM |  | 33.9 µM | 89.6 µM | 27.1 µM |  |  |  |  |  |  | 26.8 µM |  |  |  |  |
| CCN(CC)c1ccc(N=C2C=CC(=C(C#N)C#N)c3ccccc32)c(C)c1 | 24 µM | 6.95 µM |  |  | 3.43 µM | 15.2 µM | 9.58 µM | 5.47 µM | 8.05 µM |  |  |  |  |  |  | 6.1 µM |  |  |  |  |
| COC(=O)C(C(=O)C(=O)Nc1ccc(N)cc1[N+](=O)[O-])c1nc2ccc(Cl)cc2[nH]c1=O (stereo unspecified) | > 100 µM | > 100 µM | > 100 µM |  | > 100 µM | > 100 µM | > 100 µM | > 100 µM | > 100 µM |  |  |  |  |  |  | > 100 µM |  |  |  |  |
